The data set in a line: Toxicity, LD50. The settings on record: in vivo.

The results in this text go back to patent US20230072854A1, “PARAXANTHINE-BASED BIOACTIVE COMPOSITION AND METHOD OF USE THEREOF” (Ingenious Ingredients, LP, priority 2020, published 2023).

Structures are written as SMILES.

One may read the LD50 as the dose expected to kill half of the subjects tested. High values mean a less toxic substance, low ones a more toxic substance. On to `Cn1cnc2c1c(=O)[nH]c(=O)n2C` [theobromine, reference compound], for which the LD50 is 1260 mg/kg.
